What was measured:
Assay type in all cases: cell-based
P. aeruginosa [1] = experiment: Survival of P. aeruginosa biofilm after exposure to ciprofloxacin or gentamicin (CFU); settings: alone or in combination (FIGS. 7 and 9)
Method: P. aeruginosa biofilms were grown in multi-well 24 wells plates in TSB for 12 hours. Following, biofilms were treated either in PBS or PBS applied with the indicated concentrations of DTNB, AHA, CIP and/or GM for 6 hours. Following treatment, the biofilms were mildly sonicated and serially diluted to assess the number of CFU within each group.

P. aeruginosa [2] = experiment: Planktonic growth of P. aeruginosa; settings: inhibitor concentrations used, data not shown
Method: (§1) Growth Analysis—To determine growth kinetics of planktonic bacteria,the cultures were grown for 15-30 hours at 30° C. in a plate reader (BioTek, Winooski, Vt., USA) and the optical density at 600 nm (OD600) was measured every 20 minutes. Results are presented as averages for 5-6 wells from a single representative experiment out of three.

P. aeruginosa [3] = experiment: P. aeruginosa biofilm formation, Crystal Violet Staining; settings: for biofilm development: P. aeruginosa submerged biofilm, single inhibitor (FIG. 6); for biofilm formation / combination effect on biofilm formation: P. aeruginosa; for biofilm formation: single inhibitor (FIGS. 13-14)
Method: (§2) Crystal Violet—From each individual culture, 20 μl samples from exponential phase and 180 μl of TSB broth were dispensed in the wells of sterile 96-wells flat-bottomed microtiter plate (Nunc) and incubated at 37° C. for 24 hours. The control well contained only TSB broth without inoculation. Following incubation, unbound cells were removed by inversion of the microtiter plate, followed by vigorous tapping on an absorbent paper. Subsequently, adhered cells were fixed for 30 minutes at […]. Adhered cells were stained by addition of 220 μl of crystal violet (0.5%) for 5 minutes. The stain was removed by exhaustive washing with distilled water. The plates were then allowed to dry. In order to quantify adhered cells, 220 μl of decoloring solution (95% ethanol) was added to each well for 15 minutes. The absorption of the eluted stain was measured at 590 nm.

B. subtilis [4] = experiment: Pellicle biofilm model, B. subtilis in liquid B4
Method: (§3) B. subtilis (FIG. 4A) and M. smegmatis (FIG. 4B) cells were grown in liquid B4 supplemented with 0.25% and 0.025% calcium acetate, respectively, and treated with AHA at the indicated concentrations. DMSO served as a positive control and a medium not supplemented with Ca served as a negative control. The images of the top view of the wells were taken following robust pellicles formed in the DMSO control—at 3 days for B. subtilis and at 4 days for M. smegmatis.
B. subtilis cells were grown in liquid B4 supplemented with 0.25% calcium acetate and treated with AHA at the indicated concentrations. DMSO served as a positive control and a medium not supplemented with Ca served as a negative control. The images of the top view of the wells were taken following 6 days; and the weight of the mineral was determined following removal of all organic material by bleaching.
Analysis of the weight of the minerals—(A) Thermogravimetric analysis (TGA) of the B. subtilis colonies was performed as described previously [Levi-Kalisman et al., J Chem Soc Dalton (2000), 3977-3982] for at-least three colonies materials combined for each time point. The weight loss associated with the calcite relates to the temperature range 650-800° C. Results are presented as an average of at-least three independent experiments. […]

P. aeruginosa [5] = experiment: Ex vivo lung infection system (mouse lung explants infected with P. aeruginosa); settings: 37° C.; for lung colonization by P. aeruginosa / lung tissue death: mouse lung explants, ~2 days (FIGS. 10D and 11); for tissue damage (Hematoxylin/eosin histology): mouse lung tissue with P. aeruginosa, 2 days
Description: FIG. 10A is a scanning Electron Microscopy (SEM) image of biofilms of partially bleached sputum sample from P. aeruginosa positive CF patient A4, containing bleach-resistant mineralized tissue. FIG. 10B is a SEM image of biofilms of partially bleached sputum sample from P. aeruginosa positive CF patient A62 (left), accompanied by an image taken with the backscattering mode (right), containing bleach-resistant mineralized tissue. […] P. aeruginosa strain PA14 expressing GFP (green) was used to infect a lung tissue (nucleoli of lung cells were stained with DAPI—blue). Lung tissue was harvested from one month old mice and incubated in DMEM 5% FCS at 37° C. for 2 days, in the presence of P. aeruginosa, sectioned and visualized. […] Lungs were harvested from one month old mice and tissue was incubated in DMEM 5% FCS, either with or without AHA, as indicated. To each sample, either P. aeruginosa or DMEM (control) was added. Samples were incubated at 37° C. for 2 days, sectioned, stained with Hematoxylin/eosin stain and visualized.
Lungs were harvested from one month old mice and tissue was incubated in DMEM 5% FCS, either with or without DTNB, as indicated. To each sample, either P. aeruginosa or DMEM (control) was added. Samples were incubated at 37° C. for 2 days, sectioned, stained with Hematoxylin/eosin stain and visualized.
Ex vivo lung infection system—Lungs were harvested from 2 mice (one month old) and placed in petri dishes containing DMEM 5% FCS. The tissue was divided into circular pieces 4 mm in diameter with a biopsy punch and transferred to a 24 wells plate (4-5 explants/well) with 450 μl DMEM containing 100 μg/ml carbenicillin (Sigma-Aldrich) and 0, 2.5, or 5 mg/ml AHA or DTNB. To each respective well, either 50 μl DMEM (control) or P. aeruginosa pretreated with 0, 2.5, or 5 mg/ml AHA or with 0, 1, 5 or 10 mM DTNB and diluted within DMEM to attain OD600 0.373 or 0.257, respectively, were added, with three technical repeats for each condition. The plates were incubated at 37° C. for ˜2 days (48-52 hours) and washed twice with PBS, fixed with PFA 4% for 10 minutes, and embedded in either cryosection (OCT) compound or paraffin. Paraffin samples were cut into 7 micron slices and stained with H&E; whereas cryosections were cut into 10 micron slices and placed on superfrost plus slides.

B. subtilis colonies [6] = experiment: B. subtilis colony biofilm on B4 agar with Ca acetate
M. smegmatis = experiment: Pellicle biofilm model, M. smegmatis in liquid B4; settings: liquid B4, 0.025% calcium acetate, 4 days (FIG. 4B)
Method: as §3

B. subtilis [7] = experiment: Planktonic growth (OD600) of B. subtilis in B4 medium; settings: B4 medium with Ca, AHA concentrations giving smooth colonies (FIG. 3C upper)
Method: (§4) B. subtilis and M. smegmatis colonies grown on 1.5% B4 agar, supplemented with Ca acetate. FIG. 3A is a schematic representation of the biomineralization reactions leading to bicarbonate production. […] Scale bars represent 2 mm. […] DMSO served as a positive control and a medium not supplemented with Ca served as a negative control. Scale bars represent 2 mm. […] Colonies were grown in a medium supplemented with 0.025% Ca and treated with 10 mg/ml AHA. DMSO served as a positive control and a medium not supplemented with Ca served as a negative control. Scale bars represent 2 mm in the upper panels; and 0.5 mm in the lower panels.
as §1

[8] = system: M. smegmatis planktonic cells; experiment: Planktonic growth (OD600) of M. smegmatis in B4 medium; settings: B4 medium with Ca (FIG. 3C lower)
Method: as §4, §1

B. subtilis colonies [9] = experiment: FITC diffusion in colony cross-sections; settings: day 3 B. subtilis colonies, 0.025% Ca, 10 mg/ml AHA, 4 hours after FITC (FIG. 3E)
Method: as §4
Imaging—All images were taken using a Nikon D3 camera or a Stereo Discovery V20″ microscope (Tochigi, Japan) with objectives Plan Apo S ×0.5 FWD 134 mm or Apo S ×1.0 FWD 60 mm (Zeiss, Goettingen, Germany) attached to a high-resolution microscopy Axiocam camera. Data were created and processed using Axiovision suite software (Zeiss). To visualize colony cross-sections, a warm low-melt agar was poured over the colony following incubation with FITC, and allowed to solidify at room temperature (RT). Following, slices were made with a razor blade and immediately visualized. All experiments were repeated at least 3 times, in technical triplicates, with similar results.

M. smegmatis colonies = experiment: M. smegmatis colony biofilm on B4 agar with Ca acetate
[10] = system: P. aeruginosa pre-existing biofilm; experiment: P. aeruginosa pre-existing biofilm, Crystal Violet Staining; settings: biofilms grown 12 hours in TSB, treated 6 hours in PBS (FIG. 8)
Method: P. aeruginosa biofilms were grown in multi-well 24 wells plates in TSB for 12 hours. Following, biofilms were treated either in PBS or PBS applied with the indicated concentrations of sodium vanadate, DTNB or AHA for 6 hours. Results are shown as intensity of crystal violet staining (OD595) compared with the initial absorbance prior to treatment.
as §2

Compound	sensitization to ciprofloxacin and gentamicin (P. aeruginosa [1])	effect on planktonic growth (P. aeruginosa [2])	biofilm development (P. aeruginosa [3])	biofilm formation (P. aeruginosa [3])	non-soluble mineral production (B. subtilis [4]; B. subtilis pellicle, 0.25% calcium acetate, 6 days, mineral weight after bleaching (FIG. 5))	growth, biofilm development and biomineralization in pellicle biofilm model (B. subtilis [4]; B. subtilis, liquid B4, 0.25% calcium acetate, 3 days (FIG. 4A))	lung colonization by P. aeruginosa (P. aeruginosa [5])	lung tissue death (P. aeruginosa [5])	tissue damage (Hematoxylin/eosin histology) (P. aeruginosa [5])	growth, biofilm development and biomineralization of colonies (B. subtilis colonies [6]; B. subtilis colonies on 1.5% B4 agar with Ca acetate (FIGS. 3A-E))	colony morphology (B. subtilis colonies [6]; B. subtilis, medium with 0.25% Ca, AHA at indicated doses (FIG. 3B))	growth, biofilm development and biomineralization in pellicle biofilm model (M. smegmatis)	effect on planktonic growth (B. subtilis [7])	tolerance by planktonic cells [8]	formation of diffusion barriers within the colony (B. subtilis colonies [9])	colony morphology (M. smegmatis colonies; 0.025% Ca, AHA concentrations tolerated by planktonic cells (FIG. 3D))	growth, biofilm development and biomineralization (M. smegmatis colonies; inhibition of urease activity)	dispersal of pre-existing biofilm [10]	combination effect on biofilm formation (P. aeruginosa [3]; in combination with AHA (FIG. 13))	combination effect on biofilm formation (P. aeruginosa [3]; in combination with DTNB (FIG. 14))
CC(=O)NO [AHA, acetohydroxamic acid]	sensitized the P. aeruginosa colonies to treatment with ciprofloxacin and gentamicin	little or no effect on planktonic growth	impaired biofilm development	inhibited biofilm formation	decreased non-soluble mineral production	inhibits growth, biofilm development and biomineralization	diminished lung colonization by P. aeruginosa	prevented lung tissue death	prevents tissue damage	inhibits growth, biofilm development and biomineralization	smooth colony morphology	inhibits growth, biofilm development and biomineralization	little or no effect on planktonic growth	well-tolerated	prevented the formation of the diffusion barriers within the colony	less wrinkled colonies	inhibited growth, biofilm development and biomineralization	able to disperse a pre-existing P. aeruginosa biofilm		
sodium vanadate				inhibited biofilm formation															synergistic	synergistic
O=C(O)c1cc(SSc2ccc([N+](=O)[O-])c(C(=O)O)c2)ccc1[N+](=O)[O-] [DTNB, 5,5′-Dithiobis (2-nitrobenzoic acid, DTNB)]	sensitized the P. aeruginosa colonies to treatment with ciprofloxacin and gentamicin	little or no effect on planktonic growth	impaired biofilm development	inhibited biofilm formation			diminished lung colonization by P. aeruginosa	prevented lung tissue death	prevents tissue damage									able to disperse a pre-existing P. aeruginosa biofilm		

— patent publication US20210015889A1, “METHODS OF DISRUPTING A BIOFILM AND/OR PREVENTING FORMATION OF SAME” (Yeda Research and Development Co. Ltd., priority 2018, published 2021)
